In patent publication US20070259837A1, “Use of Non-Glucocorticoid Steroids for the Treatment of Muscular Dystrophy” (SANTHERA PHARMACEUTICALS (SCHWEIZ) AG, priority 2004, published 2007):
Read-outs that look alike come from different tables or passages of the source.

What was measured:
[1] = test system: utrophin protein in human muscle cells derived from DMD patients; conditions: cited from earlier work; for increase of utrophin protein content in human muscle cells (reported for glucocorticoids): Courdier-Fruh et al. 2002
[2] = test system: utrophin protein in human muscle cells derived from DMD patients; assay: Cell-based ELISA for normalized utrophin protein level in primary human myotube cultures; conditions: for utrophin protein levels normalized to cell density (UTR, relative units) compared to solvent-treated control (DMSO): 500 nM, FIG. 1 / FIG. 2, N=5-6; for % UTR vs. PDN (normalized utrophin protein as % of PDN-treated sister cultures): same experiment; for activity at 0.5 µM: Myotube, read-out: % UTR vs. DMSO (normalized utrophin protein over DMSO-solvent treated control)
Experimental: The method used to detect and determine utrophin-inducing activity of non-glucocorticoid steroids has been described previously (Courdier-Fruh, I., Barman, L., Briguet, A. & Meier, T.; 2002, Neuromuscul. Disord.; 12 Suppl:S95). Briefly, primary human muscle cell cultures were prepared according to standard protocols (Askanas V, Kwan H, Alvarez R B, Engel W K, Kobayashi T, Martinuzzi A, Hawkins E F., 1987, J Neurocytol., 16:523-537). Test compounds and the glucocorticoid 6α-methylprednisolone-21 sodium succinate (Pharmacia & Upjohn; Solu-Medrol®, PDN) as reference compound were applied at 500 nM final concentration as soon as myoblasts started to differentiate into myotubes. Incubation with the test compound was ended as soon as well differentiated myotubes have formed, typically resulting in an incubation time with a test compound for 3-7 days.
Normalized concentrations of utrophin protein in human muscle cells cultured in microtiter plates were determined by a cell-based enzyme-linked immunosorbent assay (ELISA) procedure that allows a successive readout for the cell density and utrophin protein level. For calibration, the cell density and differentiation was determined by absorbance measurements of the total dehydrogenase enzyme activity in each well using the colorimetric CellTiter 96®AQ One Solution Reagent Proliferation Assay (Promega) according to the manufacturer's recommendation. Subsequently, cells were fixed, washed, permeabilized with 0.5% (v/v) Triton X-100 and unspecific antibody binding-sites were blocked by standard procedures. Utrophin protein levels were determined immunologically with utrophin-specific primary antibodies (mouse monoclonal antibody to the amino terminal portion of utrophin, NCL-DRP2, Novocastra Laboratories) and with appropriate peroxidase-coupled secondary antibodies using QuantaBlu™ Fluorogenic Peroxidase Substrate Kit (Pierce) for detection. Fluorescence measurements were carried out with a multilabel counter (Wallac) at λex=325 nm and at λem=420 nm. The primary readout of this signal is presented in arbitrary units. For calibration, the arbitrary units representing the relative utrophin protein content of each well were divided by the corresponding cell-titer absorbance value to correct for cell density. For comparison between experiments, the cell-titer corrected readout for utrophin protein content in each well was expressed in percent of solvent treated control cultures (set to 100%). PDN was included in all experiments as reference glucocorticoid, N=3-5 for each compound tested.
Non-glucocorticoid test compounds, applied in a concentration of 500 nM, were regarded as “positive” in case the increase in the level of utrophin protein was at least 20% (mean value) over control cultures treated with the appropriate dilution of DMSO solvent as control and containing no test compound.
A range of different pharmaceutical compounds were tested for their ability to increase levels of utrophin protein in primary human myotube cultures. The cell-based ELISA protocol used to detect the level of utrophin protein is provided above and described in Courdier-Fruh, I., Barman, L., Briguet, A. & Meier, T, 2002, Neuromuscul. Disord.: 12, Suppl:S95. Briefly, fixed and permeabilized human muscle cells derived from DMD patients and cultured in 96-well cell culture plates were incubated with antibodies specific for utrophin at a dilution of 1:1'000 in blocking solution (phosphate buffered saline (PBS) supplemented with 2% fetal calf serum and 1% bovine serum albumin) for 10-15 hours at 4° C. Following several washing steps with 0.1% Triton X-100 in PBS, peroxidase-coupled secondary antibodies diluted 1:3'000 in blocking solution were applied in each well for 1-2 hours at room temperature. Signal detection, data acquisition and normalization was performed as described above and in Courdier-Fruh, I., Barman, L., Briguet, A. & Meier, T, 2002, Neuromuscul. Disord.: 12, Suppl:S95. […]

[3] = 500 nM compound, human muscle cultures, mean value, N=3-6

SMILES	% UTR vs. PDN (normalized utrophin protein as % of PDN-treated sister cultures) [2, 3] [%]	activity at 0.5 µM ([2]; Homo sapiens) [%]	other results
CC1(C)O[C@@H]2C[C@H]3[C@@H]4C[C@H](F)C5=CC(=O)C=C[C@]5(C)[C@@]4(F)[C@@H](O)C[C@]3(C)[C@]2(C(=O)CO)O1 [fluocinolone acetonide]	–	–	increase of utrophin protein content in human muscle cells (reported for glucocorticoids) [1]: increase of utrophin protein content
C[C@@H]1C[C@H]2[C@@H]3CCC4=CC(=O)C=C[C@]4(C)[C@@]3(F)[C@@H](O)C[C@]2(C)[C@@]1(O)C(=O)CO [dexametasone]	–	–	increase of utrophin protein content in human muscle cells (reported for glucocorticoids) [1]: increase of utrophin protein content
CC1(C)O[C@@H]2C[C@H]3[C@@H]4CCC5=CC(=O)CC[C@]5(C)[C@@]4(F)[C@@H](O)C[C@]3(C)[C@]2(C(=O)CCl)O1 [halcinonide]	–	–	increase of utrophin protein content in human muscle cells (reported for glucocorticoids) [1]: increase of utrophin protein content
C[C@H]1C[C@@H]2[C@H]([C@@H](O)C[C@@]3(C)[C@H]2CC[C@]3(O)C(=O)CO)[C@@]2(C)C=CC(=O)C=C12 [α-methylprednisolone]	–	–	increase of utrophin protein content in human muscle cells (reported for glucocorticoids) [1]: increase of utrophin protein content
C[C@H]1C[C@@H]2[C@H]([C@@H](O)C[C@@]3(C)[C@H]2CC[C@]3(O)C(=O)COC(=O)CCC(=O)[O-])[C@@]2(C)C=CC(=O)C=C12.[Na+] [PDN, 6α-methylprednisolone-21 sodium succinate, reference compound]	–	–	utrophin protein levels normalized to cell density (UTR, relative units) compared to solvent-treated control (DMSO) ([2]; human DMD-patient derived muscle cells): up to 200%; inhibition of PDN-mediated utrophin increase by RU38486 ([1]; simultaneous exposure to RU38468, previous experiments (Courdier-Fruh 2002)): could be inhibited
C[C@]12CCC(=O)C=C1CCC1C2CC[C@]2(C)[C@@H](C(=O)O)CC[C@]12O (some centres unmarked) [Example 18]	101	120	–
CC(CCC(=O)O)C1CCC2C3CC=C4C[C@H](O)CC[C@]4(C)C3CC[C@]12C (some centres unmarked) [Example 13]	96	126	–
CCOC(=O)[C@H]1CCC2C3CC=C4C[C@@H](OC(=O)c5ccccc5)CC[C@]4(C)C3CC[C@@]21C (some centres unmarked) [Example 17]	103	120	–
CC(=O)[C@H]1CCC2C3CCC4=CC(=O)CC[C@]4(C)C3[C@H](O)C[C@@]21C (some centres unmarked) [Example 58]	102	133	–
C[C@H](CCC(=O)O)[C@H]1CC[C@H]2[C@@H]3[C@H](O)C[C@@H]4C[C@H](O)CC[C@]4(C)[C@H]3CC[C@]12C [Example 11, 3α,7α-dihydroxy-5β-cholanic acid]	81	172	inhibition of CDCA-mediated utrophin increase by glucocorticoid receptor antagonist RU38486 ([2]; 500 nM CDCA + 500 nM RU38486 simultaneously, human DMD-patient derived muscle cells, FIG. 2): not inhibited; utrophin protein levels normalized to cell density (UTR, relative units) compared to solvent-treated control (DMSO) ([2]; human DMD-patient derived muscle cells, listed as CDCA): significantly increased
C[C@H](C(=O)O)C1CCC2C3CC=C4C[C@H](O)CC[C@]4(C)C3CC[C@@]21C (some centres unmarked) [Example 16]	104	136	–
C[C@]12CCC(=O)C[C@H]1CCC1C2C(=O)C[C@]2(C)C(C3=CC(=O)OC3)CC[C@]12O (some centres unmarked) [Example 84]	98	123	–
C[C@]12C(=CCC1C1=CC(=O)OC1)C1CC[C@@H]3C[C@@H](O)CC[C@]3(C)C1C[C@H]2O (some centres unmarked) [Example 81]	103	129	–
CC(CCC(=O)O)C1CCC2C3C(CC[C@]12C)[C@@]1(C)CC[C@@H](O)C[C@H]1C[C@@H]3O (some centres unmarked) [Example 10]	96	121	–
CC(=O)O[C@@H]1CC[C@]2(C)C3CC[C@]4(C)C(C(C)CCC(=O)O)CCC4C3CC[C@@H]2C1 (some centres unmarked) [Example 7]	104	121	–
C[C@]12CCC3c4ccc(O)cc4C=CC3C1CCC2=O (some centres unmarked) [Example 80]	96	–	activity at 0.5 µM [2, 3]: 125%
CC(=O)O[C@@H]1CC[C@]2(C)C3C[C@H](OC(C)=O)[C@]4(C)C(C(C)CCC(=O)O)CCC4C3CC[C@@H]2C1 (some centres unmarked) [Example 3]	122	144	–
CC(CCC(=O)O)C1CCC2C3CC[C@@H]4CC(=O)CC[C@]4(C)C3CC[C@]12C (some centres unmarked) [Example 8]	99	–	activity at 0.5 µM [2, 3]: 120%
CC(=O)[C@H]1CCC2C3CCC4=CC(=O)CC[C@]4(C)C3[C@H](OC(=O)c3ccccc3)C[C@@]21C (some centres unmarked) [Example 57]	104	120	–
CC(=O)OCC(=O)[C@@]1(O)CCC2C3CCC4=CC(=O)CC[C@]4(C)C3CC[C@@]21C (some centres unmarked) [Example 63, Cortexolone 21-acetate]	99	129	–
C[C@]12CCC3c4ccc(OC(=O)c5ccccc5)cc4CCC3C1C[C@@H](O)[C@@H]2O (some centres unmarked) [Example 78]	99	124	–
CC(=O)[C@@]12O[C@@H]1CC1C3CC=C4C[C@@H](O)CC[C@]4(C)C3CC[C@@]12C (some centres unmarked) [Example 56]	105	137	–
CC(=O)OC1CCC2C3CC[C@H]4C[C@H](O)CC[C@]4(C)C3CC[C@]12C (some centres unmarked) [Example 44]	99	129	–
CC(=O)O[C@@]1(C(C)=O)CCC2C3C[C@H](C)C4=CC(=O)CC[C@]4(C)C3CC[C@@]21C (some centres unmarked) [Example 54]	106	–	activity at 0.5 µM [2, 3]: 135%
C#C[C@]1(OC(C)=O)CC[C@H]2[C@@H]3CCC4=CC(=O)CC[C@@H]4[C@H]3CC[C@@]21C [Example 42, Norethisterone acetate]	101	–	activity at 0.5 µM [2, 3]: 128%
C[C@]12CCC3c4ccc(OCc5ccccc5)cc4CCC3C1C[C@@H](O)[C@@H]2O (some centres unmarked) [Example 72]	105	132	–
